Here are results for 1 compound from US9980928B2, “Hydroxy aliphatic substituted phenyl aminoalkyl ether derivatives” (PROUS INSTITUTE FOR BIOMEDICAL RESEARCH, S.A., priority 2012, dated 2018).

Series [1] relates to mice. Put plainly: Novel object recognition test (acute). The series is classed as in vivo. The source says: The novel object recognition task is used to evaluate cognition, particularly memory recognition, in rodent models of CNS disorders. This test is based on the spontaneous tendency of rodents to spend more time exploring a novel object than a familiar one. The choice to explore the novel object reflects the use of learning and memory recognition. The novel object recognition test provides a measure of activity in a novel environment allowing tests for emotional reactivity and also for novel object recognition, a cognitive domain that depends on hippocampal functional integrity. Animals were habituated to the presence of two identical objects (LEGO® pieces) during a single session of 5 minutes (training) and sniffing (exploration of an object was defined as pointing the nose to the object at a distance of <1 cm and/or touching it with the nose). Mice were injected with saline or with the compound to be tested and returned to their home cages. At 24 hours the animals were introduced in the same open field again with the same two items (familiarization), and again exploration in each of them for 5 minutes was registered. One hour later, the mice were retested in the open field for 3 minutes, but this time with one of the “familiar” objects replaced by a new one (test). To analyze cognitive performance, a discrimination index was calculated as the difference in time exploring the novel and familiar object, expressed as the ratio of the total time spent exploring both objects, which made it possible to adjust for any differences in total exploration time. This test is useful for assessing impaired cognitive ability in transgenic strains of mice and evaluating novel chemical entities for their effect on cognition (Zhang, R. J Alzheimers Dis 2012, 31(4): 801-12). […] Neuroplasticity 2007, 26496).

In series [2] the test system is mice. Put plainly: Passive avoidance test. The series is classed as in vivo. The conditions noted are these: 30 mg/kg i.p., test phase 24 hours later. The source says:
The passive avoidance task is a fear-aggravated test used to evaluate learning and memory in rodent models of CNS disorders. In this test, subjects learn to avoid an environment in which an aversive stimulus (such as a footshock) was previously delivered.
The animals can freely explore the light and dark compartments of the chamber and a mild footshock is delivered in one side of the compartment. Animals eventually learn to associate certain properties of the chamber with the footshock. The latency to pass the gate in order to avoid the stimulus is used as an indicator of learning and memory. The passive avoidance task is useful for evaluating the effect of novel chemical entities on learning and memory, as well as studying the mechanisms involved in cognition (Cappon, G. D. Eur J Pharmacol. 2008 579(1-3): 225-8).
A passive avoidance test with Example 2 administered i.p. at 30 mg/kg was conducted to assess the formation of recent and long-term memory (consolidation) using a negative reinforcement (0.6 mA footshock; 2 s).

For the next series, the system named is CHO cells. Put plainly: In vitro MTT toxicity screen. It is filed as cell-based, Chinese hamster. The conditions noted are these: 10 μM, compared to positive control group (10% DMSO). The protocol:
The toxicity of the compounds of the present invention at a concentration of 10 μM has been explored using the tetrazolium salt (MTT) method in CHO cells. The MTT method involving conversion of MTT to colored formazan by cells serves as an indirect measurement of cell growth/cell kill, as reported by several groups (Paimela, T. et al. Mol Vis 2012; 18: 1189-96; Hansen, M. B. et al. J Immunol Methods 1989, 119(2): 203-10).
In the MTT assay, cytotoxicity is correlated with the color of MTT and is measured with a spectrophotometer at the wavelength of 570 nm. Briefly, fresh MTT solution (10 mg/mL in 1×PBS) was added (1:20 volume of medium) and the cells were incubated for 1.5 hours. The cells were lysed and purple formazan was dissolved into the solution by overnight incubation with MTT lysis buffer (20% SDS, 50% N,N-dimethylformamide, 2% acetic acid, 25 mM HCl; the volume of medium+volume of MTT salt solution).

For series [3], the target named is T1, norepinephrine (NE) transporter (Homo sapiens, UniProt P23975).
T1 construct: expressed in transfected cells; host or cells: CHO cells
Briefly: Norepinephrine transporter binding radioligand inhibition ([3H]-nisoxetine). The conditions noted are these: concentration 5 μM. Here is the method:
The norepinephrine (NE) transporter removes NE from the synaptic cleft. The NE transporter terminates the effects of […], enabling its reuse by the presynaptic neuron. The in vitro binding of the compounds of the invention to the NE transporter and the percent inhibition of control-specific binding ([^3H]-nisoxetine in human recombinant CHO cells) is determined following the method described in Pacholczyk et al., (Nature 1991, 350(6316): 350-4.

Setting [4] is: acute administration, test session.

Structures are written as SMILES.

T1 sequence (P23975 whole entry): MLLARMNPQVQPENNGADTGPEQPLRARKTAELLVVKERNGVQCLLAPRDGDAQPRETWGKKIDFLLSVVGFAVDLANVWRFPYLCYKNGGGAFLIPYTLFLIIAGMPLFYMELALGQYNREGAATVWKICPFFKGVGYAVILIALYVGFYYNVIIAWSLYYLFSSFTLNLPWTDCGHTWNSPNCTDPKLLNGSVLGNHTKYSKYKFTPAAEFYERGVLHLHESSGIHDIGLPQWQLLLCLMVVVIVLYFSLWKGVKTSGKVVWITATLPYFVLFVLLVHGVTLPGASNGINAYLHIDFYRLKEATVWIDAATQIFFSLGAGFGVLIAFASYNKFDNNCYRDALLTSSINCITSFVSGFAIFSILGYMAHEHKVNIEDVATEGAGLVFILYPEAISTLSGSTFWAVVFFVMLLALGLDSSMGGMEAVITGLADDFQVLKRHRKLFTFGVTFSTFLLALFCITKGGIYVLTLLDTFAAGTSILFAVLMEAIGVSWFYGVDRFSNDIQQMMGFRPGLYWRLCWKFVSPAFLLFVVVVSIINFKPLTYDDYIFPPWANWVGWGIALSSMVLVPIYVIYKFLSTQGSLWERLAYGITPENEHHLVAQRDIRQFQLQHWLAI

On to `CNCCC(Oc1ccc(CCO)cc1)c1ccccc1.Cl` (single isomer, unassigned) [Example 2, 2-[4-[3-(Methylamino)-1-phenylpropoxy]phenyl]ethanol hydrochloride], for which, in the series on mice [1] (setting [4]), the time familiar object was found to be 24.4% and the time new object stood at 75.5%. Further, the “discrimination of the two objects vs saline group” value in the series with mice [1] (acute conditions) was “discriminated the two objects better”. Also, the “time on the platform vs saline-treated group (recent memory formation)” value with mice [2] is “significantly longer time on the platform”. Moreover, the “cell viability (MTT)” value with CHO cells was 100%. The same compound gave an inhibition at 5 µM in series [3] of 95%.

The term inhibition denotes the relative decrease from the control value, in per cent. Read a low inhibition as a response near the control.
